# According to ChEMBL document CHEMBL1201862, “PubChem BioAssay data set” (2004):
# The source made the active and inactive calls.
# What was measured:
# [1] = target: Voltage-gated inwardly rectifying potassium channel KCNH2 (Homo sapiens, UniProt Q12809); details: Potency;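 further: confirmatory quantitative high-throughput screen measuring inhibition of hERG channel activity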
# [2] = target: Beta-galactosidase (Escherichia coli, UniProt Q8VNN2); assay: PubChem AID 485352; assay type: functional
# Chain of Beta-galactosidase (Q8VNN2 whole entry): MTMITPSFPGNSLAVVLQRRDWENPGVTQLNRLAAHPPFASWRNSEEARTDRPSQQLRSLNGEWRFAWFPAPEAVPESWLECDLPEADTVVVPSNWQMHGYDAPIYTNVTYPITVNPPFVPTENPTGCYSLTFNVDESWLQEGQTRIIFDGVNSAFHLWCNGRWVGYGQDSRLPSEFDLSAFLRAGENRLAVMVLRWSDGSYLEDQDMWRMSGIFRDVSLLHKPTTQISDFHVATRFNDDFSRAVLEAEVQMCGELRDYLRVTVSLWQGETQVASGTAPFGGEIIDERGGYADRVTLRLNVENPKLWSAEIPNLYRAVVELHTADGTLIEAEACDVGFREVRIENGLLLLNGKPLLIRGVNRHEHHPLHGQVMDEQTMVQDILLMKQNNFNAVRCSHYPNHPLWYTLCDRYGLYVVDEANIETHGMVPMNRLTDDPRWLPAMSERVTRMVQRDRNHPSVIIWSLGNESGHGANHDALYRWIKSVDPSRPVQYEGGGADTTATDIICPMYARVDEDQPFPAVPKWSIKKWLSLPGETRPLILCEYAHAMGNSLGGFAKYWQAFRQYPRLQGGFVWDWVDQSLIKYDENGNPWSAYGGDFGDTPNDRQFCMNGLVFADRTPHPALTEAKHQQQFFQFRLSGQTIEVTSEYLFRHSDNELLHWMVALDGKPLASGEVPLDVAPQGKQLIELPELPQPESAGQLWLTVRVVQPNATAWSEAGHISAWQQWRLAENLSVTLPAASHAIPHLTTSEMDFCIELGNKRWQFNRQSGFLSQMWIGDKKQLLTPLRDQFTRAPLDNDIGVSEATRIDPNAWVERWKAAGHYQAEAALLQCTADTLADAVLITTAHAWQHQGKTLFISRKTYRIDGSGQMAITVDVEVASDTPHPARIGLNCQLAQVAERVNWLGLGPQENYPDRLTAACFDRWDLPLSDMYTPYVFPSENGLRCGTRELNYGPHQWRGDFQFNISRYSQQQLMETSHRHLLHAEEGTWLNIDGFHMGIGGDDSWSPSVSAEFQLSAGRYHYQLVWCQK
# [3] = target: Type-1 angiotensin II receptor (Homo sapiens, UniProt P30556); assay: AT1 receptor antagonists, dose response, selectivity assay for APJ receptor antagonist project, cell-based, uHTS hits (AID 463214); assay type: functional;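 further: antagonist potency against angiotensin II stimulated AT1 response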
# Chain of Type-1 angiotensin II receptor (P30556 whole entry): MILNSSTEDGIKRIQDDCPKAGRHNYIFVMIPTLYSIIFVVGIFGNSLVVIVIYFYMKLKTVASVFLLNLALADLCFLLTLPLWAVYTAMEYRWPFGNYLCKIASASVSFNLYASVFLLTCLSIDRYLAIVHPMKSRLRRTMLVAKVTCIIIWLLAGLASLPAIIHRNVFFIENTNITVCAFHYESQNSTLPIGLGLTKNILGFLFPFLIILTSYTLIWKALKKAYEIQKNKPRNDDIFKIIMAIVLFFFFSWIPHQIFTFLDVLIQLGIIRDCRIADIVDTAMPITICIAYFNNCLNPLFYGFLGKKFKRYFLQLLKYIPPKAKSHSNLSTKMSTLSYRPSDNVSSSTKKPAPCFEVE
# [4] = NIH-3T3 fibroblast cytotoxicity, dose response, cytotoxicity control, cell-based, fluorescence, Alamar Blue, secondary assay (AID 2327); assay type: functional;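 further: NIH-3T3 mouse fibroblasts cultured with fluconazole at 8 µg/mL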
# [5] = C. albicans growth with fluconazole, confirmation, fluorescence, retest (AID 2467); assay type: functional, cell-based
# [6] = target: Serine/threonine-protein phosphatase (Candida dubliniensis (strain CD36 / CBS 7987 / NCPF 3949 / NRRLY-17841) (Yeast), UniProt B9W6M3); assay: calcineurin pathway inhibitors in yeast reporter, dose response, S. cerevisiae, CDRE-lacZ, luminescence, secondary (AID 2388); assay type: functional, cell-based;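 further: yeast reporter cells carrying a calcineurin-responsive lacZ construct stimulated with calcium chloride; luminescent beta-galactosidase reporter signal in whole cells rather than isolated phosphatase activity; potency for inhibition where a drop in reporter signal means calcineurin blockade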
# Chain of Serine/threonine-protein phosphatase (B9W6M3 whole entry): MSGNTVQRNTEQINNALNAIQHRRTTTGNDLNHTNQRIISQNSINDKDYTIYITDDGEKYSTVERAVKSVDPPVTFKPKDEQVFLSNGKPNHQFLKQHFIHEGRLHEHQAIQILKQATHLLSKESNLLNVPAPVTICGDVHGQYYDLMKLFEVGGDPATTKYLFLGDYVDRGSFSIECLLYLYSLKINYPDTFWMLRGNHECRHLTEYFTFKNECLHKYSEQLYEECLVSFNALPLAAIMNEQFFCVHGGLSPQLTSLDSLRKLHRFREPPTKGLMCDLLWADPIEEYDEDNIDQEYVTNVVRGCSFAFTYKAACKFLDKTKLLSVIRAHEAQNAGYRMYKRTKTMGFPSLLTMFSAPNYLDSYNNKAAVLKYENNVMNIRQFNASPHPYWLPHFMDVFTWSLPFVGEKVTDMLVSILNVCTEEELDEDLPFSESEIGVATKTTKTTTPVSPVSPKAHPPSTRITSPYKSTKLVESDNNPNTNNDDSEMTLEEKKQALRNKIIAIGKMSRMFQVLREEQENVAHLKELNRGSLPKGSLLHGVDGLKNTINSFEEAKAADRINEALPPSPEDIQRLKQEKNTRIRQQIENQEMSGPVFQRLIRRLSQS
# [7] = target: ATP-dependent molecular chaperone HSP82 (Candida albicans (strain WO-1) (Yeast), UniProt C4YTQ8); assay: loss of DOC-induced GRE-beta-galactosidase reporter signal, dose response, Hsp90 inhibitor project, S. cerevisiae, luminescence (AID 2400); assay type: functional, cell-based;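 further: beta-galactosidase luminescence from glucocorticoid response element reporter as proxy for Hsp90 function; inhibitor potency where signal loss means Hsp90 inhibition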
# Chain of ATP-dependent molecular chaperone HSP82 (C4YTQ8 whole entry): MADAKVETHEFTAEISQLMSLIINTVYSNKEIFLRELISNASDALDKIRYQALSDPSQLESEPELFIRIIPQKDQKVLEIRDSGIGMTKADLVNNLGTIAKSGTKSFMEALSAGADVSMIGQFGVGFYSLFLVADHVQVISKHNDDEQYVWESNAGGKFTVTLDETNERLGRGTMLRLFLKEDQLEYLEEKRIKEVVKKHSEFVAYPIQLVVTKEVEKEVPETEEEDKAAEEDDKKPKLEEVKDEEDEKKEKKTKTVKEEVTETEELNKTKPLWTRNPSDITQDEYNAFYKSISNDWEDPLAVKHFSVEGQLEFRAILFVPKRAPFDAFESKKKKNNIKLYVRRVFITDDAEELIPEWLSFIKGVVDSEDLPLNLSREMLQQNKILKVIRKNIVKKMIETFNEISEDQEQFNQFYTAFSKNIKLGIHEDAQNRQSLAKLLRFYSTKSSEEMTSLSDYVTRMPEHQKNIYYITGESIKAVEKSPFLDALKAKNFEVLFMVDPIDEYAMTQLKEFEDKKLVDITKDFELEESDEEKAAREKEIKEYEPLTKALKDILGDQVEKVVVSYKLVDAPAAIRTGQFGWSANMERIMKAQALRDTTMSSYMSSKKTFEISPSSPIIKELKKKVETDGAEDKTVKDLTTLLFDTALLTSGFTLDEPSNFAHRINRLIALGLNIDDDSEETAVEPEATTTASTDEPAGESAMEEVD
# [8] = target: T1, Probable nicotinate-nucleotide adenylyltransferase (Staphylococcus aureus (strain N315), UniProt P65502); assay type: functional, Staphylococcus aureus subsp. aureus N315;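 on IC50 Mean: confirmatory dose-response retesting of NadD inhibitor hits first found in an ultra-high-throughput screen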
# T1 sequence (P65502 whole entry): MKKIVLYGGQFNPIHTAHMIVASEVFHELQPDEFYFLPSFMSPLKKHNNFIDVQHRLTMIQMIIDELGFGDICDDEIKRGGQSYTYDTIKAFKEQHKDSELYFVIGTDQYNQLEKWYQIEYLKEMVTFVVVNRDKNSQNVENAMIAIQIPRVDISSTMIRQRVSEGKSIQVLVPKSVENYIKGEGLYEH
# [9] = target: T1, Probable nicotinate-nucleotide adenylyltransferase; assay type: functional, Staphylococcus aureus subsp. aureus N315; details: read-out: IC50_Mean
# [10] = target: Protein Wnt-3a (Mus musculus, UniProt P27467); assay: Wnt3a-driven reporter signaling inhibition, dose response, selectivity assay for Gli-SUFU antagonist project, Wnt-LIGHT cells, luminescence (AID 651570); assay type: functional; details: read-out: IC50_Mean;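 further: Wnt-LIGHT reporter cells stimulated with conditioned medium from Wnt3a-producing cells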
# Chain of Protein Wnt-3a (P27467 whole entry): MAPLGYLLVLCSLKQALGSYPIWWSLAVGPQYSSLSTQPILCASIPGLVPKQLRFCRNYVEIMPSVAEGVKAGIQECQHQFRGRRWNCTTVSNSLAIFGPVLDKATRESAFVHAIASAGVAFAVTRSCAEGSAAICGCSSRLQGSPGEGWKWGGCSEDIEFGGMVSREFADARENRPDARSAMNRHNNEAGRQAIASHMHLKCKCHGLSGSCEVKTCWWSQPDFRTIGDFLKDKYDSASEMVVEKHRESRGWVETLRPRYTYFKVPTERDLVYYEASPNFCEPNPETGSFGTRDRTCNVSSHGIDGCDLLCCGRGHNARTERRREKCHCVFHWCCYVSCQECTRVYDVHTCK
# [11] = target: Heat shock protein HSP 90-alpha (Homo sapiens, UniProt P07900); assay type: functional, organism-based
# [12] = Luminescence Cell-Based Dose Response HTS to Identify Activators of Luciferase Translation or Activity in H4 […] Cells. [Related pubchem assays: 1829 (Project Summary), 1814 (Primary HTS)]; assay type: functional
# [13] = test system: H4; assay: Luminescence Cell-Based Dose Response HTS to Identify Activators of 5'UTR Stem-Loop Driven Prion Protein mRNA Translation in H4 Neuroglioblastoma Cells. [Related pubchem assays: 1829 (Project Summary), 1814 (Primary HTS)]; assay type: functional; details: Homo sapiens
# [14] = target: Beta-2 adrenergic receptor (Homo sapiens, UniProt P07550); assay: beta2AR agonists driving receptor internalization, dose response, cell-based, FAP fluorogen, flow cytometry, cherry pick 1 (AID 588763); assay type: functional
# Chain of Beta-2 adrenergic receptor (P07550 whole entry): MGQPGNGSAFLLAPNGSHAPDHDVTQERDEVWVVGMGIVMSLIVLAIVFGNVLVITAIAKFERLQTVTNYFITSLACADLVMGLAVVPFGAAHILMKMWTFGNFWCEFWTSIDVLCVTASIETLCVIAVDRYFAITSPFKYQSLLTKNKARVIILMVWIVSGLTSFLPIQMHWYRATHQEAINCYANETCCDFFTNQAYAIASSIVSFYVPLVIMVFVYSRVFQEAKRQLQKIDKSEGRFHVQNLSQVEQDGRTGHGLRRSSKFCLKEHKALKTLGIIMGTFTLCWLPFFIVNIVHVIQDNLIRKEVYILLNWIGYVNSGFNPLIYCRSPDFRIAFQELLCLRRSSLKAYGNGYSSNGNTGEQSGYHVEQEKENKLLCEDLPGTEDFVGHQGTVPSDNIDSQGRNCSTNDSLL
# [15] = target: T2, Insulin-degrading enzyme (Homo sapiens, UniProt P14735); assay: activators of recombinant IDE enzyme, dose response, counter-screen for IDE activator project, biochemical, fluorescence polarization (AID 588681)
# T2 sequence (P14735 whole entry): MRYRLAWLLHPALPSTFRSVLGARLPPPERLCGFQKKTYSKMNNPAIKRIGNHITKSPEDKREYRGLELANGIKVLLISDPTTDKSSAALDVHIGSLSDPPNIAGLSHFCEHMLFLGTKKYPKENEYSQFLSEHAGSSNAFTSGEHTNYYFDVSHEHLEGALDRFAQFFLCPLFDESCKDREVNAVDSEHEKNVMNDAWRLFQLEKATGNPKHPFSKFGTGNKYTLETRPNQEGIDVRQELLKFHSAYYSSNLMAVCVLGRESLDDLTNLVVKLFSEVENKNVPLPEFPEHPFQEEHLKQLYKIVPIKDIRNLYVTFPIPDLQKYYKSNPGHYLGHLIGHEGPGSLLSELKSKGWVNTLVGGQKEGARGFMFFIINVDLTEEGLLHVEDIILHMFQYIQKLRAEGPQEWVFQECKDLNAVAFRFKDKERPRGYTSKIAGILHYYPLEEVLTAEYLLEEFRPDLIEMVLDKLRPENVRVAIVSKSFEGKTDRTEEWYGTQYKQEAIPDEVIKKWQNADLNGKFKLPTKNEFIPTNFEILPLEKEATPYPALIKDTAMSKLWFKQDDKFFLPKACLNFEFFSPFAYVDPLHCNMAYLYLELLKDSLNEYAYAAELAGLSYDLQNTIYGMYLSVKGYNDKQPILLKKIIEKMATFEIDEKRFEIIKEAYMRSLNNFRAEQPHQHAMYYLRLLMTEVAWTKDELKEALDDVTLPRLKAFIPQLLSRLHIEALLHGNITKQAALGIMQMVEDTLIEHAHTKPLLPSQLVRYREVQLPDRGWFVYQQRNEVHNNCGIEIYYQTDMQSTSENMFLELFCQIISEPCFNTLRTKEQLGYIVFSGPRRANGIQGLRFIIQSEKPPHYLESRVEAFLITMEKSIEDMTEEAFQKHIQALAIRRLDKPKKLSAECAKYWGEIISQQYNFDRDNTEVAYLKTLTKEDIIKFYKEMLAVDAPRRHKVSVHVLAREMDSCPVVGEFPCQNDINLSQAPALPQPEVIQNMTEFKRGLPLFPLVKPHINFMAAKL
# [16] = target: T2, Insulin-degrading enzyme; assay: activators of endogenous IDE in HEK cells, dose response, cell-based, fluorescence polarization (AID 588439); assay type: functional
# [17] = test system: HEK293; assay: HEK cell cytotoxicity by LDH release, dose response, cytotoxicity control for IDE activator project, fluorescence, HEK cells (AID 588440); assay type: functional, cell-based; details: Homo sapiens;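 further: cytotoxicity by LDH release measuring loss of membrane integrity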
# [18] = test system: HEK293; assay: optical interference in Abeta FP readout, dose response, artefact control for IDE activator project, biochemical, fluorescence polarization (AID 588442); assay type: functional, cell-based; details: Homo sapiens
# Chain of Voltage-gated inwardly rectifying potassium channel KCNH2 (Q12809 whole entry): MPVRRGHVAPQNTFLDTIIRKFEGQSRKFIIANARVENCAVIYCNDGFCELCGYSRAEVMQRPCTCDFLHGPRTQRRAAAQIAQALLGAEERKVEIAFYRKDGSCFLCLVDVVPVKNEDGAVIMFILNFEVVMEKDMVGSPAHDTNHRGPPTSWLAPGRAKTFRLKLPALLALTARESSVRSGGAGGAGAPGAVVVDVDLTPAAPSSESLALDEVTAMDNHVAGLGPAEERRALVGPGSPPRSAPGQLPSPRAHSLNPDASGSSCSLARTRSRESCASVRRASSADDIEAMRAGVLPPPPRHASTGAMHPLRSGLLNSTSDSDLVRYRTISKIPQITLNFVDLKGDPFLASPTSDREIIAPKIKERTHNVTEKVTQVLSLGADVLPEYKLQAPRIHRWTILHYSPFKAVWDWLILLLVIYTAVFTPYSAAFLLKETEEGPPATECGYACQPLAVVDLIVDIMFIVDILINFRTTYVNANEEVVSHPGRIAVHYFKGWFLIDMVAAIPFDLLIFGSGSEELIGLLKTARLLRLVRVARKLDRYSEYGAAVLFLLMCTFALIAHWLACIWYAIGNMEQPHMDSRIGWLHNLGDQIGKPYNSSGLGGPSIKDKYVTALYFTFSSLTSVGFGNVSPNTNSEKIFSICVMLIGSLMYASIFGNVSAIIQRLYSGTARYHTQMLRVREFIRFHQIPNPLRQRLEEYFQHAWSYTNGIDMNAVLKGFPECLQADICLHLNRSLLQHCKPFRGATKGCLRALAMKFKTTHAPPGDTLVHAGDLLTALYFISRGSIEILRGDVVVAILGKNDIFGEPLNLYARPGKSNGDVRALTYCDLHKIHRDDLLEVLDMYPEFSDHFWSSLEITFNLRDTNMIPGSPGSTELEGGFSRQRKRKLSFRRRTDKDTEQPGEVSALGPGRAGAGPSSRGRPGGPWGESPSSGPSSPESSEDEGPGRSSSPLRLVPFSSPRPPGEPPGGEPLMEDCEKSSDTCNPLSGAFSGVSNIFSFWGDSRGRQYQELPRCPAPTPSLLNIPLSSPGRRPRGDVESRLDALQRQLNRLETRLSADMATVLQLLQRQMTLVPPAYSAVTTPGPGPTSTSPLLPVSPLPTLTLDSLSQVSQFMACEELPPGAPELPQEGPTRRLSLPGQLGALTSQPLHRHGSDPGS
smiles,measurement,setting,value
NC1(C(=O)O)CC1,AC50,[1],31.6 µM (inconclusive)
O=C(CNS(=O)(=O)c1ccccc1)OCC(=O)c1cccc([N+](=O)[O-])c1,EC50,[2],> 40 µM (inactive)
same,IC50,[3],38.1 µM (not active)
CCN(Cc1ccccc1)S(=O)(=O)c1ccc(C(=O)Nc2nnc(-c3ccccc3OC)o2)cc1,EC50,[4],39.3 µM (active)
same,EC50,[5],0.468 µM (active)
same,EC50,[6],> 180 µM (inactive)
same,EC50,[7],19.9 µM (active)
same,IC50,[8],8.19 µM (active)
same,IC50,[9],56.5 µM (active)
Cc1cc(Nc2ccc([N+](=O)[O-])cc2)c2ccccc2n1,IC50,[10],14.1 µM (active)
C=CCc1c(C)c(C#N)c2nc3ccccc3n2c1NCCN(C)C,EC50,[4],> 160 µM (inactive)
same,EC50,[5],1.27 µM (active)
same,EC50,[6],> 180 µM (inactive)
same,AC50,[11],4.45 µM (active)
same,EC50,[7],> 150 µM (inactive)
COc1ccc(S(=O)(=O)N2CCCC(C(=O)Nc3ccc(NC(=O)c4ccccn4)cc3)C2)cc1 (stereo not drawn),EC50,[12],> 120 µM (not active)
same,EC50,[13],5.33 µM (active)
same,EC50,[14],0.0809 µM (active)
CCC1CCCCN1S(=O)(=O)c1ccc(S(=O)(=O)N2CCN(S(=O)(=O)CC)CC2)cc1 (stereo not drawn),EC50,[15],> 54.7 µM (inactive)
same,EC50,[16],> 54.7 µM (inactive)
same,IC50,[17],> 9.91 µM (active)
same,EC50,[18],> 55.9 µM (inactive)
CCOC(=O)c1ccc(NC(=O)Cc2coc3cc4c(cc23)CCC4)cc1,EC50,[14],7.53 µM (active)
